ChEMBL document CHEMBL5678818, “Discovery of potent SOS1 inhibitors that block RAS activation via disruption of the RAS-SOS1 interaction” (Proc Natl Acad Sci U S A, 2019)

Legend:
[1] = biological target: T1, Son of sevenless homolog 1 (Homo sapiens) (UniProt Q07889); test: Inhibition of N-terminal His10-tagged wild-type recombinant human SOS1 catalytic domain (564 to 1049 residues) expressed in Escherichia coli assessed as reduction in KRAS G12C mutant activation at 10 uM by HTRF analysis relative to control
T1 sequence (whole entry): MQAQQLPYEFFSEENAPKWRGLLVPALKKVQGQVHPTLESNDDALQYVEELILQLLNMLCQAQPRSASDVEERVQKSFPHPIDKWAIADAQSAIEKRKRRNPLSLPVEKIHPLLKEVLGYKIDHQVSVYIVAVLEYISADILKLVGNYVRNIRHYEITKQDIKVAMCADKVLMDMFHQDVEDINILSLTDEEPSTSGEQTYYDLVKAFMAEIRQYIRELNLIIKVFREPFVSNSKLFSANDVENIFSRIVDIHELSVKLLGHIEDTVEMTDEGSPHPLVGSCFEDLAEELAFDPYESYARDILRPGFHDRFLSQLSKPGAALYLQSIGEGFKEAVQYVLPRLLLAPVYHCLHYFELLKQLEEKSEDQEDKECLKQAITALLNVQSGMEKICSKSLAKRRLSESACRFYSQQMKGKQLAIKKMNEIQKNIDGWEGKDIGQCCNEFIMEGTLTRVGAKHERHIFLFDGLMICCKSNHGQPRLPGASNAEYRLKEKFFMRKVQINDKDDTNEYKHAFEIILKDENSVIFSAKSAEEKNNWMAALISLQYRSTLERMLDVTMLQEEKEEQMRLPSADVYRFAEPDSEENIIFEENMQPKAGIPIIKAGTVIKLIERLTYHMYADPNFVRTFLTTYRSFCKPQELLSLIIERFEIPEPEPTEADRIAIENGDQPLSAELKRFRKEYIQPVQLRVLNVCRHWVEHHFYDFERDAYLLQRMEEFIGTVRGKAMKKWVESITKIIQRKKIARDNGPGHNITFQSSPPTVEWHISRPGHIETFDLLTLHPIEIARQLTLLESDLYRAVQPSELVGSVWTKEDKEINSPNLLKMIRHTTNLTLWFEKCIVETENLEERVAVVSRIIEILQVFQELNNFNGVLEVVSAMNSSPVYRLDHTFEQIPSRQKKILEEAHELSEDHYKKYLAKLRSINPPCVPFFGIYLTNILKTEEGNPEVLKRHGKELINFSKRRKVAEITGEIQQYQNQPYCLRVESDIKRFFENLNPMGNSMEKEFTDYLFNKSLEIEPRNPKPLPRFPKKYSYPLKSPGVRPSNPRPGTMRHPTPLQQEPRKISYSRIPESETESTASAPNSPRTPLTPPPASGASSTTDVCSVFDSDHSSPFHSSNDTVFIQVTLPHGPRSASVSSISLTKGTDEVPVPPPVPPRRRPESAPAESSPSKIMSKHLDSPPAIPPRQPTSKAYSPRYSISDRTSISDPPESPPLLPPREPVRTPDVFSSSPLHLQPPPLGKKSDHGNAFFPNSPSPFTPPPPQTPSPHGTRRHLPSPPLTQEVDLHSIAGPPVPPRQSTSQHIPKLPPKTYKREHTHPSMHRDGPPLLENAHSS

[2] = biological target: Dual specificity protein kinase CLK2 (Homo sapiens) (UniProt P49760); test: Inhibition of CLK2 (unknown origin) assessed as residual activity at 100 nM by KINOMEscan analysis relative to control
[3] = biological target: Activated CDC42 kinase 1 (Homo sapiens) (UniProt Q07912); test: Inhibition of TNK2 (unknown origin) assessed as residual activity at 100 nM by KINOMEscan analysis relative to control
[4] = biological target: T2, Mitogen-activated protein kinase kinase kinase kinase 2 (Homo sapiens) (UniProt Q12851); test: Inhibition of MAP4K2 (unknown origin) assessed as residual activity at 100 nM by KINOMEscan analysis relative to control
T2 sequence (whole entry): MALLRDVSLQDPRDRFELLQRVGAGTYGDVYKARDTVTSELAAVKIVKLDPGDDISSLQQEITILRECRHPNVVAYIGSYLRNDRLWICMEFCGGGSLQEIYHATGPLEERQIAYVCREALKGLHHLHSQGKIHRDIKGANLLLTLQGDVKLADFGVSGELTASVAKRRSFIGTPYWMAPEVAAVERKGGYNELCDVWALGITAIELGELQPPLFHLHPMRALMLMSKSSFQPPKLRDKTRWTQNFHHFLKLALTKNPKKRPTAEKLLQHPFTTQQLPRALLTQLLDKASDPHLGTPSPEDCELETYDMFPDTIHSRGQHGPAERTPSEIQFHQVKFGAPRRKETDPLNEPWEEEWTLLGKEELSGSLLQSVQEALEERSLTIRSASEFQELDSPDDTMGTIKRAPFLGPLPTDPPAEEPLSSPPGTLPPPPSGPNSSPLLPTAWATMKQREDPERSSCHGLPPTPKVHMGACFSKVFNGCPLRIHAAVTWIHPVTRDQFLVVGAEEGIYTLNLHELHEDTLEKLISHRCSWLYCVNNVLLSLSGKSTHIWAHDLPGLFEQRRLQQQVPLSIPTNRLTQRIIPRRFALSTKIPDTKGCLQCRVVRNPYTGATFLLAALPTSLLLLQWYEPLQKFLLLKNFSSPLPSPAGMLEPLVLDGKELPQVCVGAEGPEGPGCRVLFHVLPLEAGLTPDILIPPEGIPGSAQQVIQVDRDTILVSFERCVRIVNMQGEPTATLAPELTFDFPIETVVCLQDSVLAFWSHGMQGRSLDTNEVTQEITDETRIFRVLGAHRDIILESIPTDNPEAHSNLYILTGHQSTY

Sequence of Activated CDC42 kinase 1 (Homo sapiens) (Q07912 whole entry, looked up): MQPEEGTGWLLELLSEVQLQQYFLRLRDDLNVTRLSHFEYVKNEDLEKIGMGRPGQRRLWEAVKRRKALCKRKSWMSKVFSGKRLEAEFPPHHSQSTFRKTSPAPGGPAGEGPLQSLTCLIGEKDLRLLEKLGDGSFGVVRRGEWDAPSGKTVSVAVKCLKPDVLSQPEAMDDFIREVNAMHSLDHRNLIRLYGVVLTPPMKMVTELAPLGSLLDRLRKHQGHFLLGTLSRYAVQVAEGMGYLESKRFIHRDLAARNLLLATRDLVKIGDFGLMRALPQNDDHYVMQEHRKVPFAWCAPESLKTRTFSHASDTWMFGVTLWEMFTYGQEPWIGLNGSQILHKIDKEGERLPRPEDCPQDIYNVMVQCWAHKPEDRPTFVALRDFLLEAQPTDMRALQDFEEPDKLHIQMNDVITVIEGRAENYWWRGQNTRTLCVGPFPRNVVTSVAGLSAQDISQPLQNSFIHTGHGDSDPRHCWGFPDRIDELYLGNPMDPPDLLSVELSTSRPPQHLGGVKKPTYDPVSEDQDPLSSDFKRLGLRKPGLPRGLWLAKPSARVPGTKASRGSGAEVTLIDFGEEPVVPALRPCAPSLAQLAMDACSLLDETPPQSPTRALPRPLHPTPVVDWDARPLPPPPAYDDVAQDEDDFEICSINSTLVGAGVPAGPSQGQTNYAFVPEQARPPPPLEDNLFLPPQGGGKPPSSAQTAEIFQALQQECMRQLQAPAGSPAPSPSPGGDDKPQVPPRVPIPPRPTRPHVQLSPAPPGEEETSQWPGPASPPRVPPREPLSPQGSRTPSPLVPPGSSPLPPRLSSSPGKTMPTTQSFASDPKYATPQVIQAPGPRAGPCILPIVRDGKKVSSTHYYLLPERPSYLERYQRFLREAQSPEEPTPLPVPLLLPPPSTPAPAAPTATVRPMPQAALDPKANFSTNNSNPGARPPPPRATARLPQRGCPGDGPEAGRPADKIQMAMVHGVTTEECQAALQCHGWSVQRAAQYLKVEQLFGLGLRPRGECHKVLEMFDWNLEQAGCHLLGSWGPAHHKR
Sequence of Dual specificity protein kinase CLK2 (Homo sapiens) (P49760 whole entry, looked up): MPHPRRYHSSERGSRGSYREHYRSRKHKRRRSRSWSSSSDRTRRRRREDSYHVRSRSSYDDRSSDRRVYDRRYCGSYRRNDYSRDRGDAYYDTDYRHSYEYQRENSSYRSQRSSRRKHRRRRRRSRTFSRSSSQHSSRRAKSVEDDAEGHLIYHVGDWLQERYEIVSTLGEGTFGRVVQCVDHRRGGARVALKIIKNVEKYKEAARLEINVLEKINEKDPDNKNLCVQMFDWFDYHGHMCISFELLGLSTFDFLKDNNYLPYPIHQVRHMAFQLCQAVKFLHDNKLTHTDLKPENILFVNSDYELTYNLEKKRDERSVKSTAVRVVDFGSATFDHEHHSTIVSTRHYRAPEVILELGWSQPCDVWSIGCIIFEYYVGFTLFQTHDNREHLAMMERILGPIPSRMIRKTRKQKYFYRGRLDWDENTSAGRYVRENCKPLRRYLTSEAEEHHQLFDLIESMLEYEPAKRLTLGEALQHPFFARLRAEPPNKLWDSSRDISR

COc1cc2ncnc(N[C@H](C)c3cccc4ccccc34)c2cc1OC
inhibition [1]: 95%
Activity [2]: 100%
Activity [3]: 100%
Activity [4]: 83%
